Tests used:
Huh7-GNMT cells = assay: Sorafenib cell viability in Huh7-GFP and Huh7-GNMT cells; format: cell-based, human; settings: 2.5 μM sorafenib
Procedure: The cell viability is determined after Huh7-GFP cells capable of expressing Green fluorescent protein (GFP) and Huh7-GNMT cells are treated with an increased concentration of sorafenib.
Please refer to FIG. 26, which illustrates the effect of sorafenib on cell proliferation, wherein numerals 1 and 2 denote Huh7-GFP cells and Huh7-GNMT respectively.
Stablized cells comprises Huh7-GFP, Huh7-GNMT, Huh7-shGNMT, Huh7-shLacZ and Huh7-shMyc, which are established via the lentivirus system and cultured in Dulbecco's Modified Eagle's Medium (DMEM) (Gibco BRL, Grand Island, N.Y., USA) with 1 μg/ml puromycin.

Huh7 cells = assay: Combination treatment, Huh7 xenograft tumor volume; format: in vivo, NOD-SCID mice; settings: sorafenib 10 mpk; F3-6 25 mpk or 300 mpk
Procedure: Please refer to FIG. 29, which illustrates the tumor volume, wherein the numeral 1 is for a physiological saline solution, the numeral 2 is for F3-6 (25 mg/kg (mpk)), the numeral 3 is for F3-6 (300 mpk), the numeral 4 is for sorafenib (10 mpk), the numeral 5 is for F3-6 (25 mpk) with sorafenib (10 mpk), and the numeral 6 is for PGG (25 mpk) with sorafenib (10 mpk).
To assess the combinatory effect of drugs, female nonobese diabetic/severe combined immunodeficiency (NOD-SCID) mice lacking thymus gland were injected with Huh7 cells (2×10^6).
Mice are administered F3-6 (25 mpk), F3-6 (300 mpk) or PGG (25 mpk) three times per week, and sorafenib (10 mpk) twice per week alone or combined with F3-6 or PGG as illustrated in FIG. 29.
(§1) Tumor growth was monitored (every day or three times per week) by using Vernier caliper measurement of the length (L) and width (W) of the tumor.
(§2) Tumor volume (TV) was calculated by using the formula volume=(L×W^2)/2.

[1] = tested on: Huh7-GFP and Huh7-GNMT transfected cells; assay: Sorafenib in Huh7-GFP / Huh7-GNMT xenograft; format: in vivo, NOD-SCID mice
Procedure: To assess the effect of additional GNMT to administering sorafenib, female nonobese diabetic/severe combined immunodeficiency (NOD-SCID) mice lacking thymus gland were subcutaneously injected with […] or Huh7-GFP cells. The mice were randomly grouped and treated with a sorafenib or a physiological saline. Overexpression of GNMT inhibits cancer cell proliferation compared to the tumor due to Huh7-GFP cells.
Please refer to FIG. 27, which illustrates that the tumor cells are treated with the compound of sorafenib, wherein the numeral 1 is for Huh7-GFP transfected cells administered with a physiological saline, the numeral 2 is for Huh7-GNMT transfected cells administered with a physiological saline, the numeral 3 is for Huh7-GFP transfected cells administered with 10 mg/kg sorafenib and the numeral 4 is for Huh7-GNMT transfected cells administered with 10 mg/kg sorafenib. […] Based on the above results, a survey for the effect of PGG combined with sorafenib as a combination therapy to liver cancer was conducted. […]
as §1, §2

CNC(=O)c1cc(Oc2ccc(NC(=O)Nc3ccc(Cl)c(C(F)(F)F)c3)cc2)ccn1 [sorafenib, 4-[4-[[4-chloro-3-(trifluoromethyl)phenyl]carbamoylamino]phenoxy]-N-methyl-pyridine-2-carbox-amide]
viability of GNMT stable cells compared to GFP control cells (Huh7-GNMT cells): decreased significantly | tumor growth, single drug (Huh7 cells): effective in inhibiting the tumor growth | size of the tumor, Huh7-GNMT transfected cells, compared with other groups ([1]; 10 mg/kg): reducing the size of the tumor is statistically significant | tumor growth ([1]; oral 10 mpk, three days a week): significantly inhibits tumor growth
